We go through 16 compounds from PubChem BioAssay (NCI).

Holding throughout (experiment): NCI tumour cell line growth inhibition, 48 h
In test [1] the test system is A498 renal.
The subject of test [2] is HCC-2998 colon.
Test [3] has as its system SK-MEL-28 melanoma.
The test system of test [4] is UO-31 renal.
Test [5] deals with RPMI-8226 leukemia.
The test system of test [6] is HL-60(TB) leukemia.
Test [7] has as its system HCT-116 colon.
The subject of test [8] is EKVX NSCLC.

Molecules are shown by their SMILES.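 Protocol summary: plate cells (96-well), add compound at 5 concentrations, incubate 48 h, interpolate endpoints linearly. Abbreviation: GI50, concentration required for 50% inhibition of growth. TGI marks complete inhibition of growth.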

As to `CCOC(=O)/C(C#N)=C(N)/C(=N\Nc1cccc(C(F)(F)F)c1)C(=O)OCC`, the TGI in test [1], in test [2], in test [3], in test [4], in test [5] and in test [6] was above 100 µM each time. Besides, the TGI in test [7] and in test [8] was above 100 µM throughout.

Take `CNC(C)Cc1ccc(O)cc1` (stereo unspecified): the TGI in test [1], in test [2], in test [3], in test [4], in test [5] and in test [6] was above 100 µM throughout. Also, the TGI in test [7] and in test [8] was above 100 µM in each case.

For the compound `c1ccc(COc2cccc3cccnc23)cc1`, the TGI was above 100 µM in test [2]; above 100 µM in test [3]; above 100 µM in test [4]; above 100 µM in test [5]; 57.5 µM in test [6]; above 100 µM in test [7]. In test [8], this compound yielded a TGI above 100 µM.

`CC1=NN(C(=O)c2cc(Cl)cc([N+](=O)[O-])c2)C(=O)C1N=Nc1ccccc1C(=O)O` (stereo unspecified): the TGI in test [1], in test [2], in test [3], in test [4], in test [5] and in test [6] was above 100 µM in each case. Moreover, the TGI in test [7] and in test [8] was above 100 µM each time.

As for `C/C=C/C(=O)[O-].N.N.N.N.N.[Co+3].[O-][Cl+3]([O-])([O-])[O-]`, the GI50 in test [1], in test [2], in test [3], in test [4], in test [5] and in test [6] was above 100 µM throughout. In addition, the GI50 in test [7] and in test [8] was above 100 µM in each case. For the same compound, the TGI in test [1], in test [2], in test [3], in test [4], in test [5] and in test [6] was above 100 µM each time. In addition, the TGI in test [7] and in test [8] was above 100 µM throughout.

On to `Cc1cccc(O)c(=O)c1`, for which the TGI in test [1] is above 100 µM; in test [2], above 100 µM; in test [3] it was above 100 µM; in test [4], above 100 µM; in test [5], 92.6 µM; in test [6], 12.1 µM. For the same compound, the TGI in test [7] is above 100 µM; in test [8], 98.9 µM.

Consider `O=c1cccccc1NCCNc1cccccc1=O`, for which the TGI in test [4], in test [5], in test [6], in test [7] and in test [8] was above 100 µM throughout.

On to `Cc1ccc(SCC(O)=C2C(=O)CCCC2=O)cc1`, for which the TGI in test [3], in test [4], in test [5], in test [6], in test [7] and in test [8] was above 100 µM throughout.

Regarding `Cc1ccc(C)c2c1CCc1cc3ccccc3nc1-2`, the TGI in test [1], in test [2], in test [3], in test [4], in test [5] and in test [7] was above 100 µM in each case. For the same compound, the TGI in test [8] was above 100 µM.

As for `C[C@@H](c1ccccc1)N(CC#N)C1CCC[C@H]1O` (stereo partly specified), the TGI in test [1], in test [2], in test [3], in test [4], in test [5] and in test [6] was above 100 µM each time. Also, the TGI in test [7] and in test [8] was above 100 µM throughout.

Take `CC(=O)OCC(OC(C)=O)C(OC(C)=O)C(OC(C)=O)C(=O)CNn1c(-c2ccccc2Cl)nc2ccc(Br)cc2c1=O` (stereo unspecified): the TGI in test [1] was above 100 µM; in test [3] it was above 100 µM; in test [4], above 100 µM; in test [5] it was above 100 µM; in test [6] it was 90.1 µM; in test [7], above 100 µM. In addition, the TGI in test [8] is above 100 µM.

Turning to `CCC1(CC)C(=O)[N-]C(=O)[N-]C1=O.[Au+].[Au+].c1ccc([PH+](c2ccccc2)c2ccccc2)cc1.c1ccc([PH+](c2ccccc2)c2ccccc2)cc1`, the GI50 is 1.98 µM in test [2], 0.988 µM in test [3] and 1.65 µM in test [4]. For the same compound, the figures for the TGI in test [2], in test [3] and in test [4] were 3.41 µM, 2.34 µM and 3.04 µM, respectively.

`O=C(Nc1ccccc1C(=O)O)C(=O)C(C(=O)c1ccccc1-c1ccccc1)C1OC(=O)c2ccccc21` (stereo unspecified): the TGI was 35.3 µM in test [1]; 30.6 µM in test [2]; 35.1 µM in test [3]; 32.5 µM in test [4]; 98.2 µM in test [5]; 70.6 µM in test [6]. The TGI in test [7] turned out to be 36.5 µM; in test [8], 58.6 µM.

As for `O=C1OC(c2ccccc2)=N/C1=C/N1CCCC1C(=O)O` (stereo unspecified), the TGI in test [1], in test [2], in test [3], in test [4], in test [5] and in test [6] was above 100 µM each time. Further, the TGI in test [7] and in test [8] was above 100 µM throughout.

In the case of `CN/N=C(\C(=O)Nc1ccc([N+](=O)[O-])cc1[N+](=O)[O-])C1NC(=O)NC1=O` (stereo unspecified), the TGI in test [1], in test [2], in test [3], in test [4], in test [5] and in test [6] was above 100 µM each time. The TGI in test [7] and in test [8] was above 100 µM each time.

As for `O=C(O)c1oc2cccc3c2c1CCC3`, the TGI in test [1], in test [2], in test [3], in test [4], in test [5] and in test [6] was above 100 µM throughout. Also, the TGI in test [7] and in test [8] was above 100 µM each time.
